Where “and” joins values, the source holds several entries; their conditions need not be identical. Identical values can stand only once. Like-named read-outs stand apart in the source and are kept apart here.
Columns and labels:
in vivo = settings: mouse, ip
P388 leukemia = settings: for ILS (maximum increase in lifespan): ip P388 leukemia mice, ip days 1-5, slash-separated figures are separate experiments
[1] = test system: M5076 reticulum cell sarcoma; test: ip M5076 reticulum cell sarcoma assay in mice; settings: for MTD (maximally tolerated dose) / ILS max (maximum increase in lifespan): Table C, ip qD × 10; for MTD (maximally tolerated dose): B6D2F1 female mice; for ILS max (maximum increase in lifespan): ip M5076 sarcoma mice, slash = separate experiments, compound 2: seven experiments; for activity in the ip M5076 reticulum cell sarcoma assay: in words, based on Tables C and D
Method: Another chemosensitive tumor model is intraperitoneally (ip) implanted M5076 reticulum cell sarcoma in mice. In this system B6D2F1 female mice are inoculated with 0.5 ml of a 10 percent weight:volume (w:v) brei of M5076 prepared from pooled subcutaneous (sc) tumors excised at about 21 days from c57B1/6 donor mice. Drugs are administered ip. Daily treatment is begun 24 hours after implantation and is continued for ten days. The treatment regimen for M5076 is more prolonged than for P388 because of the slower growth rate and longer control survival time of the M5076 tumor.

[2] = Table B, B6D2F1 female mice, ip qD × 5
[3] = Table B, compound 2: 35 experiments

| Compound | MTD (in vivo) | MTD (maximally tolerated dose) (P388 leukemia; [2]) | ILS (maximum increase in lifespan) (P388 leukemia; [3]) | other results |
| --- | --- | --- | --- | --- |
| CC(C(C)P(c1ccccc1)c1ccccc1)P(c1ccccc1)c1ccccc1 (single isomer, unassigned; (-)) [Compound 42] | 48 mg/kg |  |  |  |
| [Cl][Au][PH](C=C[PH]([Au][Cl])(c1ccccc1)c1ccccc1)(c1ccccc1)c1ccccc1 [Compound 8, μ-[Trans-1,2-Bis(Diphenylphosphino)Ethylene]Bis[Chlorogold(I)]] |  | 24 mg/kg | 33% and 36% |  |
| CC(C[PH]([Au][Cl])(c1ccccc1)c1ccccc1)[PH]([Au][Cl])(c1ccccc1)c1ccccc1 (stereo not drawn) [Compound 9, μ-[1,2-Bis(Diphenylphosphino)Propane]Bis[Chlorogold(I)]] |  | 6 mg/kg | 45% and 60% and 35% | MTD (maximally tolerated dose) [1]: 5 mg/kg; ILS max (maximum increase in lifespan) [1]: 98%; activity in the ip M5076 reticulum cell sarcoma assay [1]: good activity |
| C[C@H](C[PH]([Au][Cl])(c1ccccc1)c1ccccc1)[PH]([Au][Cl])(c1ccccc1)c1ccccc1 [Compound 10, μ-[(R)-(+)-1,2Bis(Diphenylphosphino)Propane]Bis[Chlorogold(I)]] |  | 6 mg/kg | 50% and 25% |  |
| CC(C(C)[PH]([Au][Cl])(c1ccccc1)c1ccccc1)[PH]([Au][Cl])(c1ccccc1)c1ccccc1 [Compound 11, μ-[(-) (2S,3S)-2,3-Bis(Diphenylphosphino)Butane]Bis[Chlorogold(I)]] |  |  |  | MTD (maximally tolerated dose) (P388 leukemia; mouse, in vivo, ip): 6 mg/kg |
| O=[N+]([O-])[O][Ag][PH](CC[PH]([Ag][O][N+](=O)[O-])(c1ccccc1)c1ccccc1)(c1ccccc1)c1ccccc1 [Compound 13, μ-[1,2-Bis(Diphenylphosphino)Ethane]Bis[Nitratosilver(I)]] |  | 6 mg/kg | 45% and 30% |  |
| [Cl][Cu][PH](CC[PH]([Cu][Cl])(c1ccccc1)c1ccccc1)(c1ccccc1)c1ccccc1 [Compound 14, μ-[1,2-Bis(Diphenylphosphino)Ethane]Bis[Chlorocopper(I)]] |  | 4 mg/kg | 65% and 79% |  |
| N#C[S][Au][PH](CC[PH]([Au][S]C#N)(c1ccccc1)c1ccccc1)(c1ccccc1)c1ccccc1 [Compound 16] |  | 6 mg/kg | 36% and 62% and 45% | MTD (maximally tolerated dose) [1]: 5 mg/kg; ILS max (maximum increase in lifespan) [1]: 52%; activity in the ip M5076 reticulum cell sarcoma assay [1]: good activity |
| CC(=O)[O][Au][PH](CC[PH]([Au][O]C(C)=O)(c1ccccc1)c1ccccc1)(c1ccccc1)c1ccccc1 [Compound 17, μ-[1,2-Bis(Diphenylphosphino)Ethane]Bis[Acetatogold(I)]] |  | 4 mg/kg | 73% and 64% | MTD (maximally tolerated dose) [1]: 4 mg/kg; ILS max (maximum increase in lifespan) [1]: 54% and 67%; activity in the ip M5076 reticulum cell sarcoma assay [1]: good activity |
| FC(F)(F)[S][Au][PH](CC[PH]([Au][S]C(F)(F)F)(c1ccccc1)c1ccccc1)(c1ccccc1)c1ccccc1 [Compound 18, μ-[1,2-Bis(diphenylphosphino)ethane]Bis[trifluoromethyl-thiogold(I)]] |  |  |  | ILS max (maximum increase in lifespan) [1]: 70% |
| CCOC(=S)[S][Au][PH](CC(O)[PH]([Au][S]C(=S)OCC)(c1ccccc1)c1ccccc1)(c1ccccc1)c1ccccc1 (stereo not drawn) [Compound 19, μ-[1,2-Bis(Diphenylphosphino)Ethanol]Bis[O-Ethyldithiocarbonatogold(I)]] |  | 6 mg/kg |  |  |
| CCOC(=O)C(N)C[S][Au][PH](CC[PH]([Au][S]CC(N)C(=O)OCC)(c1ccccc1)c1ccccc1)(c1ccccc1)c1ccccc1 (stereo not drawn) [Compound 20] |  | 6 mg/kg | 50% and 56% |  |
| CC[PH](CC)(CC[PH]([Au][Cl])(c1ccccc1)c1ccccc1)[Au][Cl] [Compound 21, μ-[1-Diethylphosphino-2-Diphenylphosphino-Ethane]bis-[Chlorogold(I)]] |  | 16 mg/kg | 30% |  |
| [Cl][Au][PH](CC[PH](Cc1ccccc1)(Cc1ccccc1)[Au][Cl])(Cc1ccccc1)Cc1ccccc1 [Compound 23, μ-[1,2-Bis(Dibenzylphosphino)Ethane]Bis[Chlorogold (I)]] |  | 4 mg/kg | 45% and 30% | MTD (maximally tolerated dose) [1]: 4 mg/kg; ILS max (maximum increase in lifespan) [1]: 40% |
| COc1ccc([PH](CC[PH]([Au][Cl])(c2ccc(OC)cc2)c2ccc(OC)cc2)([Au][Cl])c2ccc(OC)cc2)cc1 [Compound 24, μ-[1,2-Bis[Bis(4-methoxyphenyl)phosphino]ethanel]bis[chlorogold(I)]] |  | 8 mg/kg |  |  |
| Fc1ccc([PH](CC[PH]([Au][Cl])(c2ccc(F)cc2)c2ccc(F)cc2)([Au][Cl])c2ccc(F)cc2)cc1 [Compound 25, μ-[1,2-Bis[Bis(4-Fluorophenyl)Phosphino]Ethane]Bis-[Chlorogold (I)]] |  | 8 mg/kg | 80% and 75% |  |

| Compound | MTD (in vivo) | MTD (maximally tolerated dose) (P388 leukemia; [2]) | ILS (maximum increase in lifespan) (P388 leukemia; [3]) | other results |
| --- | --- | --- | --- | --- |
| Fc1cccc([PH](CC[PH]([Au][Cl])(c2cccc(F)c2)c2cccc(F)c2)([Au][Cl])c2cccc(F)c2)c1 [Compound 26, μ-[1,2-Bis[Bis(3-Fluorophenyl)Phosphino]Ethane]Bis [Chlorogold (I)]] |  | 8 mg/kg | 60% and 55% |  |
| Fc1c(F)c(F)c([PH](CC[PH]([Au][Cl])(c2c(F)c(F)c(F)c(F)c2F)c2c(F)c(F)c(F)c(F)c2F)([Au][Cl])c2c(F)c(F)c(F)c(F)c2F)c(F)c1F [Compound 27, μ-[1,2-Bis[bis(2,3,4,5,6-pentafluorophenyl)phosphine]ethane]-bis[chlorogold(I)]] |  | 16 mg/kg | 30% and 25% |  |
| FC(F)(F)c1ccc([PH](CC[PH]([Au][Cl])(c2ccc(C(F)(F)F)cc2)c2ccc(C(F)(F)F)cc2)([Au][Cl])c2ccc(C(F)(F)F)cc2)cc1 [Compound 29] |  | 8 mg/kg | 37% and 44% |  |
| CSc1ccc([PH](CC[PH]([Au][Cl])(c2ccc(SC)cc2)c2ccc(SC)cc2)([Au][Cl])c2ccc(SC)cc2)cc1 [Compound 30, μ-[1,2-Bis[Bis(4-Methylthiophenyl)Phosphino]ethane]-Bis[chlorogold(I)]] |  | 8 mg/kg | 37% and 65% |  |
| [2H]c1c([2H])c([2H])c([PH](CC[PH]([Au][Cl])(c2c([2H])c([2H])c([2H])c([2H])c2[2H])c2c([2H])c([2H])c([2H])c([2H])c2[2H])([Au][Cl])c2c([2H])c([2H])c([2H])c([2H])c2[2H])c([2H])c1[2H] [Compound 31, μ-[1,2-Bis[di(phenyl-d5)phosphino]ethane]bis-[chlorogold(I)]] |  | 6 mg/kg | 40% and 65% |  |
| c1ccc(P(CCCCP(c2ccccc2)c2ccccc2)c2ccccc2)cc1 [Compound 38, Bis(1,4-diphenylphosphino)butane] | 28 mg/kg |  |  |  |
| c1ccc(P(CCCCCP(c2ccccc2)c2ccccc2)c2ccccc2)cc1 [Compound 39, Bis (1,5-diphenylphosphino)pentane] | 8 mg/kg |  |  |  |
| C(=C\P(c1ccccc1)c1ccccc1)/P(c1ccccc1)c1ccccc1 [Compound 41, Trans-bis(1,2-diphenylphosphino)ethylene] | 128 mg/kg |  |  |  |
| C1CCC(P(CCP(C2CCCCC2)C2CCCCC2)C2CCCCC2)CC1 [Compound 44, 1,2-bis(dicyclohexylphosphino)ethane] | 32 mg/kg |  |  |  |
| Fc1ccc(P(CCP(c2ccc(F)cc2)c2ccc(F)cc2)c2ccc(F)cc2)cc1 [Compound 45, 1,2-ethanediyl-bis[bis(4-fluorophenyl)phosphine]] | 8 mg/kg |  |  |  |
| Fc1cccc(P(CCP(c2cccc(F)c2)c2cccc(F)c2)c2cccc(F)c2)c1 [Compound 46, 1,2-Ethanediyl-bis[bis(3-fluorophenyl)phosphine]] | 32 mg/kg |  |  |  |
| CSc1ccccc1P(CCP(c1ccccc1SC)c1ccccc1SC)c1ccccc1SC [Compound 47, 1,2-ethanediyl-bis[bis(2-methylthiophenyl)phosphine]] | 64 mg/kg |  |  |  |
| CSc1ccc(P(CCP(c2ccc(SC)cc2)c2ccc(SC)cc2)c2ccc(SC)cc2)cc1 [Compound 48, 1,2-Ethanediyl-Bis[Bis(4-methylthiophenyl)phosphine]] | 32 mg/kg |  |  |  |
| CCP(CC)CCP(CC)CC [Compound 49] | 64 mg/kg |  |  |  |
| CCP(CC)CCP(CC)CC [Compound 50] |  |  |  | MTD (maximally tolerated dose) (P388 leukemia; Table BI, B6D2F1 female mice, ip qD × 5): 128 mg/kg; ILS (maximum increase in lifespan) (P388 leukemia; Table BI, compound 33: 41 experiments): 55% |
| μ-[1,2-Bis[Bis(2-Methylthiophenyl)Phosphino]Ethane]Bis[Chlorogold(I)] [Compound 28] |  | 8 mg/kg |  |  |
